Data as given in patent US20230219986A1, “NOVEL AMINOPYRIMIDINE EGFR INHIBITOR” (QILU PHARMACEUTICAL CO., LTD., priority 2020, published 2023).
Where two headings read alike, the source gives them in different places.

How the values were obtained:
[1] = target: Ba/F3 L858R/T790M/C797S EGFR triple mutant cell line (Homo sapiens, UniProt P00533, T790M/C797S/L858R, cells depend on it); test: Cell proliferation inhibition experiment (CellTiter-Glo), Ba/F3 L858R/T790M/C797S; type: cell-based; conditions: 72 hours, Cell Titer-Glo, read-out: Ba/F3 (L858R/T790M/C797S) IC50
Sequence of Ba/F3 L858R/T790M/C797S EGFR triple mutant cell line (P00533 whole entry T790M/C797S/L858R): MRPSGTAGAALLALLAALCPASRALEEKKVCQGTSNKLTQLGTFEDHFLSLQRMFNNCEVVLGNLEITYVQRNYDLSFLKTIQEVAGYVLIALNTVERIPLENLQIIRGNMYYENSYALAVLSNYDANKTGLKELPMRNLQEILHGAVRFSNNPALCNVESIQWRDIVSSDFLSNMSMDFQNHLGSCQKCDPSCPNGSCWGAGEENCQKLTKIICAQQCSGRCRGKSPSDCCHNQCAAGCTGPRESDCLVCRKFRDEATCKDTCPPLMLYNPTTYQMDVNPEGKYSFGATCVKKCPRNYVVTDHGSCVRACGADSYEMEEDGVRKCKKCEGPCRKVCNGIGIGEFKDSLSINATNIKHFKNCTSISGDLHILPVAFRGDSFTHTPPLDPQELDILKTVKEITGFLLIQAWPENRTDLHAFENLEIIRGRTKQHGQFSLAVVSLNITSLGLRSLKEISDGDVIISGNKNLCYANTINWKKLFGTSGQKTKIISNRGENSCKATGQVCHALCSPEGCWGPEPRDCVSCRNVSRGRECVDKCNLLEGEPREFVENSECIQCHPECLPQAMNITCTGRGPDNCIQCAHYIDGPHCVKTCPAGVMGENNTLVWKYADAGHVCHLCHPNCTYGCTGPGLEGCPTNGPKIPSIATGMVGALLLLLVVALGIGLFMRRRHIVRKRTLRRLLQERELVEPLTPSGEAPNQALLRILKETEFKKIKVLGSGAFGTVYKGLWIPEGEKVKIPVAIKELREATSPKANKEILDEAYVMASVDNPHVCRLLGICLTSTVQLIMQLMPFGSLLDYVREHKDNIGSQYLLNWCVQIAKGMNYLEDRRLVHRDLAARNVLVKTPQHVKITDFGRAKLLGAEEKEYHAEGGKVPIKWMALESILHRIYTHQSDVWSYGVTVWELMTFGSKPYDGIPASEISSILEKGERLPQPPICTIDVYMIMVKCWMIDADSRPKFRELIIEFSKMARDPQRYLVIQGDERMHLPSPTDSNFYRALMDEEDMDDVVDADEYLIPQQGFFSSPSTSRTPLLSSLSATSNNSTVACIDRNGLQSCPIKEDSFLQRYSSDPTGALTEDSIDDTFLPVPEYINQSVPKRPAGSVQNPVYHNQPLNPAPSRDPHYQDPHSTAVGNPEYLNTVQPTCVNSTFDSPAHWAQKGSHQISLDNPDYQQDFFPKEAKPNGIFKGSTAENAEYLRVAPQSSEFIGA
Procedure: (§1) 3) 30 nL of gradient diluted compound was transferred into the 384-well experimental plate using Echo 550 (Labcyte) at a DMSO final concentration of 0.1%, and the culture plate was incubated in a cell incubator for 72 hours (37° C., 5% CO2).
(§2) 4) 30 μL of Cell Titer-Glo reagent was added to each well and left for 30 minutes at room temperature and protected from light.
(§3) 5) Envision microplate reader (PerkinElmer) detected chemiluminescence signals.
(§4) 6) GraphPad Prism 8 software was used for data analysis to obtain the IC50 of the compounds of the present disclosure and the positive control.

wild-type EGFR = target: T1, wild-type EGFR (Homo sapiens, UniProt P00533); test: Enzymology experiment in vitro (HTRF/FRET kinase activity), wild-type EGFR; type: biochemical; conditions: HTRF KinEASE-TK, read-out: EGFR (WT) IC50
T1 construct: purchased Signalchem
T1 sequence (P00533 25-1210): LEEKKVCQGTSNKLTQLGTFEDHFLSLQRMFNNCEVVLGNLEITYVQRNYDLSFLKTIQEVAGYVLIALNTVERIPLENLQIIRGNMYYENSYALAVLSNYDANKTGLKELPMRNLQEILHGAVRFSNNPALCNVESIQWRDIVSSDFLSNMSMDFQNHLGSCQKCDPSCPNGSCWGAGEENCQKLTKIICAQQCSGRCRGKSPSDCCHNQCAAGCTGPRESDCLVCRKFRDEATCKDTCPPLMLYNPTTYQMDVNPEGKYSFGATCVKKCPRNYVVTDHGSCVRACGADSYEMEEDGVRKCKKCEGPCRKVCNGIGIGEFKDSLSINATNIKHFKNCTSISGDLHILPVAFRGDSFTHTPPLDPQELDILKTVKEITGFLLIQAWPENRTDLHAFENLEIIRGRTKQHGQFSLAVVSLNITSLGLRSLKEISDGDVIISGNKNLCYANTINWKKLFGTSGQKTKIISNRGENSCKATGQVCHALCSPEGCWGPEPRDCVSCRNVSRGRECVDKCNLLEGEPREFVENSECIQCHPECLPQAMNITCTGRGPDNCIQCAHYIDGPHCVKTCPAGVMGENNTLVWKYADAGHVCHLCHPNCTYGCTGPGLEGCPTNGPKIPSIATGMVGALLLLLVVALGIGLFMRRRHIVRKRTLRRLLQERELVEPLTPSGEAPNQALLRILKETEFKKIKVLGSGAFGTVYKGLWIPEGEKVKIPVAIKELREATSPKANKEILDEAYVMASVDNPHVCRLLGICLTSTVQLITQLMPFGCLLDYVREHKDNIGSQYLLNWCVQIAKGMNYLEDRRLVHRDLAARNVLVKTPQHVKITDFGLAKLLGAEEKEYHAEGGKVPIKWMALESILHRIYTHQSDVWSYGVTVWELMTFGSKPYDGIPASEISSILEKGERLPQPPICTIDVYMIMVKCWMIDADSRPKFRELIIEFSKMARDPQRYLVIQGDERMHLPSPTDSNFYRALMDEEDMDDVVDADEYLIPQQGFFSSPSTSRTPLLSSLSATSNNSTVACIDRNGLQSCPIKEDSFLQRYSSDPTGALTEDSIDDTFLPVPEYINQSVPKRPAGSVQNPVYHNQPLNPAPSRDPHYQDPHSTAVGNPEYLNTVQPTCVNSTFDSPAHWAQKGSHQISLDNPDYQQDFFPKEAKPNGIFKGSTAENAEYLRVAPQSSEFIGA
Procedure: (§5) 1. Experimental Materials
(§6) HTRF KinEASE-TK kit detection reagent, purchased from Cisbio
(§7) 1) 10 nL of gradient diluted compound was transferred into a 384-well experimental plate using Echo 550 (Labcyte).
(§8) 2) 5 μL of 2×EGFR enzyme solution was added to the 384-well experimental plate and incubated at room temperature for 10 minutes.
(§9) 3) 5 μL of 2× substrate solution containing polypeptide and ATP was added to the 384-well experimental plate and incubated at room temperature for 40 minutes.
(§10) 4) 10 μL of detection solution containing EDTA, XL665-labeled streptavidin and Eu^3+-labeled antibody was added thereto and incubated at room temperature for 1 hour.

[2] = target: T2, L858R/T790M/C797S triple mutant EGFR (Homo sapiens, UniProt P00533, C797S/L858R/T790M); test: Enzymology experiment in vitro (HTRF/FRET kinase activity), L858R/T790M/C797S triple mutant EGFR; type: biochemical; conditions: HTRF KinEASE-TK, read-out: EGFR (L858R/T790M/C797S) IC50
T2 construct: purchased Signalchem
T2 sequence (P00533 25-1210 T790M/C797S/L858R): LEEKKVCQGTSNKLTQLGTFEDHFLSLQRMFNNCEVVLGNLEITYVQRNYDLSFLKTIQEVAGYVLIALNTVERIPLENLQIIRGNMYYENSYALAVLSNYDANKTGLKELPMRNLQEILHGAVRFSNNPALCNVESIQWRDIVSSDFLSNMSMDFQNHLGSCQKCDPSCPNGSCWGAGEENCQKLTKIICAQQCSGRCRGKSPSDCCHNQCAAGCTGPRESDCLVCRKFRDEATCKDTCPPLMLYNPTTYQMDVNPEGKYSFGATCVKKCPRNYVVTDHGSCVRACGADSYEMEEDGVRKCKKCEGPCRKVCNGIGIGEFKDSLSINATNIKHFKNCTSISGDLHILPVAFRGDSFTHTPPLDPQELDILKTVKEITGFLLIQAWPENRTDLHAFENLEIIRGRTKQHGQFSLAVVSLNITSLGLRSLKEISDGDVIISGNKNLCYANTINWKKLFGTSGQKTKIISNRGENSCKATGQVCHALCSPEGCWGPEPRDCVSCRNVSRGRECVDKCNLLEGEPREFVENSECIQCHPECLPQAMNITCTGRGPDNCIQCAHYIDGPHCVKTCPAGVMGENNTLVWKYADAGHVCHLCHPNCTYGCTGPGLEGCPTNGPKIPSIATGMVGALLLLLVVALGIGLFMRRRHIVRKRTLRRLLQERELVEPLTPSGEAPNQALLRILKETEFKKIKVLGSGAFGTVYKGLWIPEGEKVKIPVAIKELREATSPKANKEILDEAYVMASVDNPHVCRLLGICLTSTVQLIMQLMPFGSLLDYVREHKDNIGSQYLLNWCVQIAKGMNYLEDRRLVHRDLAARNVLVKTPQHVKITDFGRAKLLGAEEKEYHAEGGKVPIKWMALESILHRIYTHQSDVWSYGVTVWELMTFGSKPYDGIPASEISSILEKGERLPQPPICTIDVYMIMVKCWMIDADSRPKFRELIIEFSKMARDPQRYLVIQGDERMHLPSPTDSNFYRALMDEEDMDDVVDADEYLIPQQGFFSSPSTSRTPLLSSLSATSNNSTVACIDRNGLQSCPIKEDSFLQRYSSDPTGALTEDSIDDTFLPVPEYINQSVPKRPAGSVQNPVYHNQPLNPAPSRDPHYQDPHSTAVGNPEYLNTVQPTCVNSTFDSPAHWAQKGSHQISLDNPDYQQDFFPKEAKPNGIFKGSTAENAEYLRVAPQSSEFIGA
Procedure: as §5, §6, §7, §8, §9, §10

[3] = system: EGFR wild-type cell line A431; test: Cell proliferation inhibition experiment (CellTiter-Glo), A431; type: cell-based; conditions: A431 cells, Cell Titer-Glo, read-out: A431 EGFR WT IC50
Procedure: A431 cells, purchased from ATCC.
1) A431 cells were inoculated in a 384-well culture plate at a density of 800 cells per well, 30 μL per well, placed in a cell incubator, and cultured for 24 hours (37° C., 5% CO2).
as §1, §2, §3, §4

[4] = target: Ba/F3 De119/T790M/C797S EGFR triple mutant cell line (Homo sapiens, UniProt P00533, T790M/C797S, cells depend on it, form not given); test: Cell proliferation inhibition experiment (CellTiter-Glo), Ba/F3 De119/T790M/C797S; type: cell-based; conditions: Ba/F3 Del19/T790M/C797S EGFR triple mutant cells, 72 hours, Cell Titer-Glo; read-out: Ba/F3 (Del19/T790M/C797S) IC50
Sequence of Ba/F3 De119/T790M/C797S EGFR triple mutant cell line (P00533 with tags, fused parts or gaps DEL746-750/T790M/C797S, form open): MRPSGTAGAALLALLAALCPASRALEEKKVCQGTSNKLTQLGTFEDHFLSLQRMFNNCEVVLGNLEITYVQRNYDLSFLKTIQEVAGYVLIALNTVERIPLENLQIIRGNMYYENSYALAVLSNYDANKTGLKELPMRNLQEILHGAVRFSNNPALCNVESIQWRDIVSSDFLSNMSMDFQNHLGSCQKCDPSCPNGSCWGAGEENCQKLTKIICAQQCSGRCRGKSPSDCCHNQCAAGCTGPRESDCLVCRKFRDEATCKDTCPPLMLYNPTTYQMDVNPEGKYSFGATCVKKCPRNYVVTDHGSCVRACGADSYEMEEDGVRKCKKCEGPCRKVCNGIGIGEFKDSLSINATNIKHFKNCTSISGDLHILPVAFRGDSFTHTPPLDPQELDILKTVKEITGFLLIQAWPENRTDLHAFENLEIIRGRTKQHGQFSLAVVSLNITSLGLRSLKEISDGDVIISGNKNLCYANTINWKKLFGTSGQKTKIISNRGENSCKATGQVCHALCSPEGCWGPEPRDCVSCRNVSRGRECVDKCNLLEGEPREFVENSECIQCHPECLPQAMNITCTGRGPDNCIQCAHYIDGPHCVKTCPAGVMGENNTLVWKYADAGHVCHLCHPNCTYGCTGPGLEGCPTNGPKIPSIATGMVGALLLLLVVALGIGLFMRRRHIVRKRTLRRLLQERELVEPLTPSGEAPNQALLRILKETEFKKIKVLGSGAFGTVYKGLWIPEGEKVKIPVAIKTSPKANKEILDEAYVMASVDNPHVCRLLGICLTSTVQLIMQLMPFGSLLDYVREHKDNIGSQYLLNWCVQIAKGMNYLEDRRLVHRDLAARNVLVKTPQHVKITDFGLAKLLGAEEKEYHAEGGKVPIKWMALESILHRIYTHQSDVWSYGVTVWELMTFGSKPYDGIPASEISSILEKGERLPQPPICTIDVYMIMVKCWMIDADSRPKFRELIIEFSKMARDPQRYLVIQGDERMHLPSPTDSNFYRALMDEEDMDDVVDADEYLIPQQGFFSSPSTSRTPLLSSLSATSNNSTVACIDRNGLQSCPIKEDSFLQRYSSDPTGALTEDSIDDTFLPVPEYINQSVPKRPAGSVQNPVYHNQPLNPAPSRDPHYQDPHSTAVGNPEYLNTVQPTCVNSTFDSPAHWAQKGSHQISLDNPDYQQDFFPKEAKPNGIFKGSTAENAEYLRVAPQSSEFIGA
Procedure: as §1, §2, §3, §4

SMILES | GI50 [1] | IC50 (wild-type EGFR) | IC50 [2] | IC50 ([3]; Homo sapiens, A-431, 72 h) | GI50 [4] | IC50 ([3]; 72 hours)
COc1cc(N2CC(C)OC(C)C2)c(-c2cnn(C)c2)cc1Nc1ncc(Br)c(Nc2ccc3nccnc3c2P(C)(C)=O)n1 (racemic) [compound 135, (6-((5-bromo-2-((4-(trans-2,6-dimethylmorpholinyl)-2-methoxy-5-(1-methyl-1H-pyrazol-4-yl)phenyl)amino))pyrimidin-4-yl)amino)quinoxalin-5-yl)dimethylphosphine oxide] | 13.3 nM | 15.6 nM | 0.47 nM | 402 nM | 3.68 nM | –
COc1cc(N2CC(C)OC(C)C2)c(-c2cnn(C)c2)cc1Nc1ncc(Br)c(Nc2cc3c(cc2P(C)(C)=O)CC3)n1 (racemic) [compound 136] | 57.1 nM | 99.5 nM | 5.3 nM | 1750 nM | 13.7 nM | –
COc1cc(N2CC(C)OC(C)C2)c(-c2cnn(C)c2)cc1Nc1ncc(Br)c(Nc2cc3c(cc2P(C)(C)=O)CC3)n1 (racemic) [compound 137] | 77.8 nM | 170 nM | 9.81 nM | – | 27.1 nM | 1500 nM
COc1cc(N2CCC(N3CCOC(C)C3)CC2)c(-c2cnn(C)c2)cc1Nc1ncc(Br)c(Nc2ccc3nccnc3c2P(C)(C)=O)n1 (racemic) [compound 148, (6-((5-bromo-2-((2-methoxy-5-(1-methyl-1H-pyrazol-4-yl)-4-(4-(2-methylmorpholinyl)piperidin-1-yl)phenyl)amino)pyrimidin-4-yl)amino)quinoxalin-5-yl)dimethylphosphine oxide] | 2.78 nM | 5.04 nM | 0.64 nM | 124 nM | 0.7 nM | –
COc1cc(N2CCC(N3CC(C)OC(C)C3)CC2)c(-c2cnn(C)c2)cc1Nc1ncc(Br)c(Nc2ccc3nccnc3c2P(C)(C)=O)n1 (racemic) [compound 174] | 7.85 nM | 2.39 nM | 0.6 nM | 307 nM | 4.63 nM | –
COc1cc(N2CCC3(CC2)CN(C)CC(C)O3)c(-c2cnn(C)c2)cc1Nc1ncc(Br)c(Nc2ccc3nccnc3c2P(C)(C)=O)n1 (racemic) [compound 217, (6-((5-Bromo-2-((4-(2,4-dimethyl-1-oxa-4,9-diazaspiro[5.5]undecan-9-yl)-2-methoxy-5-(1-methyl-1H-pyrazol-4-yl)phenyl)amino)pyrimidin-4-yl)amino)quinoxalin-5-yl)dimethylphosphine oxide] | 3.29 nM | 3.87 nM | 0.95 nM | 60.5 nM | 0.94 nM | –
COc1cc(N2CCC3C(C2)CN3C)c(-c2cnn(C)c2)cc1Nc1ncc(Br)c(Nc2ccc3nccnc3c2P(C)(C)=O)n1 (racemic) [compound 221] | 2.79 nM | 1.37 nM | 0.09 nM | 26.2 nM | 2.41 nM | –
COc1cc(N2CCC(N3CC(F)C3)C2)c(-c2cnn(C)c2)cc1Nc1ncc(Br)c(Nc2ccc3nccnc3c2P(C)(C)=O)n1 (racemic) [compound 223, (6-((5-Bromo-2-((4-(3-(3-fluoroazetidin-1-yl)pyrrolidin-1-yl)-2-methoxy-5-(1-methyl-1H-pyrazol-4-yl)phenyl)amino)pyrimidin-4-yl)amino)quinoxalin-5-yl)dimethylphosphine oxide] | 3.56 nM | 7 nM | 0.17 nM | 76.9 nM | 2.88 nM | –
COc1cc(N2CC(C)OC(C)C2)c(-c2cnn(C)c2)cc1Nc1ncc(Br)c(Nc2ccc3nccnc3c2P(C)(C)=O)n1 (single isomer, unassigned) [155a] | 15.6 nM | 27.7 nM | 0.67 nM | 320 nM | 2.98 nM | –
COc1cc(N2CC(C)OC(C)C2)c(-c2cnn(C)c2)cc1Nc1ncc(Br)c(Nc2ccc3nccnc3c2P(C)(C)=O)n1 (single isomer, unassigned) [155b] | 7.55 nM | 21.6 nM | 0.8 nM | – | 1.63 nM | 213 nM
COc1cc(N2CCC3CCN(CC4CC4)C3C2)c(-c2cnn(C)c2)cc1Nc1ncc(Br)c(Nc2ccc3nccnc3c2P(C)(C)=O)n1 (single isomer, unassigned) [234a] | 3.91 nM | 5.04 nM | 0.32 nM | 42.4 nM | 2.05 nM | –
COc1cc(N2CC[C@@H]3CCN(CC4CC4)[C@@H]3C2)c(-c2cnn(C)c2)cc1Nc1ncc(Br)c(Nc2ccc3nccnc3c2P(C)(C)=O)n1 (single isomer, unassigned) [234b] | 5.65 nM | 5.44 nM | 0.37 nM | 38.4 nM | 2.52 nM | –
COc1cc(N2CCC3(CC2)CO[C@@H](C)[C@@H]3N(C)C)c(-c2cnn(C)c2)cc1Nc1ncc(Br)c(Nc2ccc3nccnc3c2P(C)(C)=O)n1 (stereo in doubt) [compound 201] | 3.7 nM | 6.92 nM | 0.74 nM | 120 nM | 2.22 nM | –
COc1cc(N2CCOCC2)c(-c2cnn(C)c2)cc1Nc1ncc(Br)c(Nc2ccc3nccnc3c2P(C)(C)=O)n1 [Compound 1, (6-((5-bromo-2-((2-methoxy-5-(1-methyl-1H-pyrazol-4-yl)-4-morpholinophenyl)amino)pyrimidin-4-yl)amino)quinoxalin-5-yl)-dimethylphosphine oxide] | 5.61 nM | 0.94 nM | 0.12 nM | 137 nM | 0.58 nM | –
COc1cc(N2CCOCC2)c(-c2cnn(C)c2)cc1Nc1ncc(Br)c(Nc2ccccc2P(C)(C)=O)n1 [Compound 2, (2-((5-bromo-2-((2-methoxy-5-(1-methyl-1H-pyrazol-4-yl)-4-morpholinylphenyl)amino)pyrimidin-4-yl)amino)phenyl)dimethylphosphine oxide] | 17.5 nM | 18 nM | 0.09 nM | 316 nM | 4.21 nM | –
COc1cc(S(C)(=O)=O)c(-c2cnn(C)c2)cc1Nc1ncc(Br)c(Nc2ccc3nccnc3c2P(C)(C)=O)n1 [compound 44] | – | 1560 nM | 22 nM | ≥ 5000 nM | 93.5 nM | –
CN1CCOc2c(Nc3ncc(Br)c(Nc4ccc5nccnc5c4P(C)(C)=O)n3)cc(-c3cnn(C)c3)cc21 [compound 47] | – | 20.5 nM | 0.37 nM | 126 nM | 4.31 nM | –
CCn1cc(-c2cc(Nc3ncc(Br)c(Nc4ccc5nccnc5c4P(C)(C)=O)n3)c(OC)cc2N2CCOCC2)cn1 [compound 49] | – | 21.5 nM | 0.12 nM | 234 nM | 4.88 nM | –
Cn1cc(-c2cc(Nc3ncc(Br)c(Nc4ccc5nccnc5c4P(C)(C)=O)n3)c3c(c2N2CCOCC2)CCCO3)cn1 [compound 51] | 36.8 nM | 111 nM | 0.11 nM | 292 nM | – | –
COc1cnc(-c2cnn(C)c2)cc1Nc1ncc(C)c(Nc2ccc3nccnc3c2P(C)(C)=O)n1 [compound 53] | – | 87 nM | 3.6 nM | 294 nM | 62.2 nM | –
COc1cc(N2CCC(N3CCOCC3)CC2)c(-c2cnn(C)c2)cc1Nc1ncc(Br)c(Nc2ccc3nccnc3c2P(C)(C)=O)n1 [compound 129] | 2.71 nM | – | 0.27 nM | – | 0.72 nM | 86.2 nM
COc1cc(N2CCC(N3CCOCC3)CC2)c(-c2cnn(C)c2)cc1Nc1ncc(Br)c(Nc2ccc3nccnc3c2P(C)(C)=O)n1 [compound 210] | 7.23 nM | – | 0.11 nM | – | 4.42 nM | 275 nM
